Measured values taken from patent EP4603105A1, “PHARMACEUTICAL COMPOSITION CONTAINING CYCLIC COMPOUND HAVING SELECTIVE KRAS INHIBITORY EFFECT AGAINST HRAS AND NRAS” (CHUGAI SEIYAKU KABUSHIKI KAISHA, priority 2022, dated 2024).
Where a SMILES comes first, the peptide text is derived from it. Bridges are numbered along the chain shown (N, C = ends). [ ]: non-standard residue; d: D form. The star is where a group is joined. hPhe(3-Cl-4-CF3) = N[C@@H](CCc1ccc(C(F)(F)F)c(Cl)c1)C(=O)O; NPrPhe(4-CF3) = CCCN[C@@H](Cc1ccc(C(F)(F)F)cc1)C(=O)O; NMeGly(cPent) = CN[C@H](C(=O)O)C1CCCC1; Pro(4,4-Me2) = CC1(C)CN[C@H](C(=O)O)C1; NMeD = CN[C@@H](CC(=O)O)C(=O)O; NMeL = CN[C@@H](CC(C)C)C(=O)O; Morpholide = C1CN(*)CCO1; Ac5c = NC1(C(=O)O)CCCC1; Aze = O=C(O)[C@@H]1CCN1; Sar = CNCC(=O)O

Key:
[1] = test system: human lung cancer strain NCI-H441; type: cell-based
Procedure, shortened: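 Readout: […] after the ATP-based reagent. Compound: serial dilutions in dimethyl sulfoxide.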

[2] = target: GDP-bound KRAS wild-type protein (Homo sapiens, UniProt P01116); experiment: Binding to KRAS by surface plasmon resonance (SPR), dissociation constant KD; details: 1:1 binding model
Sequence of GDP-bound KRAS wild-type protein (P01116 1-188 isoform P01116-2): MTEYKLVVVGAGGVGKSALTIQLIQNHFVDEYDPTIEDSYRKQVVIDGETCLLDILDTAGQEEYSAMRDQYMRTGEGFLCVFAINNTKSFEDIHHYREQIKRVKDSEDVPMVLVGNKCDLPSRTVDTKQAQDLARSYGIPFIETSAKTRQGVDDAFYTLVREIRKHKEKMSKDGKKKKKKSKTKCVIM
Procedure, shortened: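 Biotinylated GDP-bound RAS was captured at about 100–300 RU. Running buffer: HBS pH 7.4, 10 mM MgCl2, 10 µM GDP, 1 mM DTT, 0.01% Tween 20, 4% DMSO.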

HRAS wild-type protein = HRAS wild-type protein (Homo sapiens, UniProt P01112); experiment: Binding to HRAS by surface plasmon resonance (SPR), KD and KD ratio to KRAS
Sequence of HRAS wild-type protein (P01112 whole entry): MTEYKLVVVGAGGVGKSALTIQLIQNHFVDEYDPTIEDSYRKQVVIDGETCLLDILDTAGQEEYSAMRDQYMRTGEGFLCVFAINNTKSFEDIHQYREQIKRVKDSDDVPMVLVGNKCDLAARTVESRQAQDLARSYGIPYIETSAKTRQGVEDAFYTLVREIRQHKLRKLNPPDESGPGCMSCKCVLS
Procedure, shortened: (§1)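 Affinity is measured by surface plasmon resonance at 30°C against captured, GDP-loaded RAS carrying a biotinylated Avi tag. Compounds are titrated by single-cycle kinetics, and KD comes from a 1:1 fit.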

[3] = target: GDP-bound NRAS wild-type protein (Homo sapiens, UniProt P01111); experiment: Binding to NRAS by surface plasmon resonance (SPR), KD and KD ratio to KRAS
Sequence of GDP-bound NRAS wild-type protein (P01111 whole entry): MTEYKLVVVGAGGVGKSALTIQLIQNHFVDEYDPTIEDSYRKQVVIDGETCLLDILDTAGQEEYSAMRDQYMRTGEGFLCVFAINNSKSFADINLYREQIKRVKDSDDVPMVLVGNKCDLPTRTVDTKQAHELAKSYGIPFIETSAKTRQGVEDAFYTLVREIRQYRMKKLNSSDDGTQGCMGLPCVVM
Procedure, shortened: as §1

[4] = ratio of the KD value with respect to HRAS wild-type protein to the KD value with respect to KRAS
[5] = ratio of the KD value with respect to GDP-bound NRAS wild-type protein to the KD value with respect to KRAS
[6] = ratio of KD value for HRAS wild-type protein to KD value for KRAS (SPR)
[7] = ratio of KD value for GDP-bound NRAS wild-type protein to KD value for KRAS (SPR)
[8] = ratio of KD for HRAS wild-type protein to KD for KRAS
[9] = ratio of KD for GDP-bound NRAS wild-type protein to KD for KRAS

Row | IC50 [1] [nM] | Kd ([2]; Single Cycle Kinetics) [nM] | Kd [2] [nM] | Compound | HRAS /KRAS (HRAS wild-type protein; [4]) | NRAS /KRAS [3, 5] | HRAS /KRAS (HRAS wild-type protein; [6]) | NRAS /KRAS [3, 7] | HRAS /KRAS (HRAS wild-type protein; [8]) | NRAS /KRAS [3, 9]
1 | 17.6 | 0.34 | – | CCC[C@H]1C(=O)N[C@@H]([C@@H](C)CC)C(=O)N(CCC)CC(=O)N(C)[C@H]2C/C=C\CCN(C2=O)[C@@H](Cc2ccc(C)cc2)C(=O)N(C)CC(=O)N[C@@H](CCc2cc(F)c(C(F)(F)F)c(F)c2)C(=O)N2C[C@H](OCC)C[C@H]2C(=O)NC2(CC(C)(C)C2)C(=O)N(C)[C@@H](C2CCCC2)C(=O)N(C)[C@H](C(=O)N(C)C)CC(=O)N1C [PP2108] | A (a compound having 10 or more and less than 20 is denoted as A) | A (a compound having 10 or more and less than 20 is denoted as A) | – | – | – | –
2 | 22.2 | 0.12 | – | CCC[C@H]1C(=O)N[C@@H]([C@@H](C)CC)C(=O)N(C)CC(=O)N(C)[C@H]2C/C=C\CCN(C2=O)[C@@H](Cc2ccc(C)cc2)C(=O)N(C)CC(=O)N[C@@H](CCc2cc(F)c(C(F)(F)F)c(F)c2)C(=O)N2C[C@H](C)C[C@H]2C(=O)NC2(CCC2)C(=O)N(C)[C@@H](C2CCCC2)C(=O)N(C)[C@H](C(=O)N(C)CC)CC(=O)N1C [PP1862] | – | – | A (a compound having 10 or more and less than 20 is denoted as A) | A (a compound having 10 or more and less than 20 is denoted as A) | – | –
3 | > 1300 | 26 | – | CCO[C@@H]1C[C@H]2C(=O)NC3(CCC3)C(=O)N(C)[C@@H](C3CCCC3)C(=O)N(CCC3CCCC3)[C@H](C(=O)N3CCOCC3)CC(=O)N(C)[C@@H](CC(C)C)C(=O)N[C@@H]([C@@H](C)CC)C(=O)N(C)CC(=O)N(C)[C@H]3CCCCCN(C3=O)[C@@H](Cc3ccc(C(F)(F)F)cc3)C(=O)N(C)CC(=O)N[C@@H](CCc3cc(F)c(C(F)(F)F)c(F)c3)C(=O)N2C1 [PP0641] | A (a compound having 10 or more and less than 20 is denoted as A) | A (a compound having 10 or more and less than 20 is denoted as A) | – | – | – | –
4 | 42.3 | 0.029 | – | CCO[C@@H]1C[C@H]2C(=O)NC3(CCC3)C(=O)N(C)[C@@H](C3CCCC3)C(=O)N(C)[C@H](C(=O)N3CCOCC3)CC(=O)N(C)[C@@H](Cc3cccnc3)C(=O)N[C@@H]([C@@H](C)CC)C(=O)N(C)CC(=O)N(C)[C@H]3CCCCN(C3=O)[C@@H](Cc3ccc(C(F)(F)F)cc3)C(=O)N(C)CC(=O)N[C@@H](CCc3cc(F)c(C(F)(F)F)c(F)c3)C(=O)N2C1 [PP0718] | B (a compound having 3 or more and less than 10 is denoted as B) | C (A compound having a KD ratio of 0.1 or more and less than 3 is denoted as C) | – | – | – | –
5 | 16.6 | – | 0.3 | CCO[C@@H]1C[C@H]2C(=O)NC3(CC(C)(C)C3)C(=O)N(C)[C@@H](C3CCCC3)C(=O)N(C)[C@H](C(=O)N(C)C)CC(=O)N(C)[C@@H]([C@@H](C)OC)C(=O)N[C@@H]([C@@H](C)CC)C(=O)N(C3CC3)CC(=O)N(C)[C@H]3C/C=C\CCN(C3=O)[C@@H](Cc3ccc(C)cc3)C(=O)N(C)CC(=O)N[C@@H](CCc3ccc(C(F)(F)F)c(Cl)c3)C(=O)N2C1 [PP3212] | – | – | – | – | A (a compound having 10 or more and less than 20 is denoted as A) | A (a compound having 10 or more and less than 20 is denoted as A)

Second part, the compound before the results:

Row | Compound | IC50 [1] [nM] | Kd ([2]; Single Cycle Kinetics) [nM] | Kd [2] [nM] | HRAS /KRAS (HRAS wild-type protein; [4]) | NRAS /KRAS [3, 5] | HRAS /KRAS (HRAS wild-type protein; [6]) | NRAS /KRAS [3, 7] | HRAS /KRAS (HRAS wild-type protein; [8]) | NRAS /KRAS [3, 9]
6 | CCCN1C(=O)CN(C)C(=O)[C@@H]2CCN2C(=O)[C@H]([C@@H](C)CC)NC(=O)[C@H](CC(C)C)N(C)C(=O)C[C@@H](C(=O)N2CCOCC2)N(C)C(=O)[C@H](C2CCCC2)N(C)C(=O)C2(CCCC2)NC(=O)[C@@H]2CC(C)(C)CN2C(=O)[C@H](CCc2ccc(C(F)(F)F)c(Cl)c2)NC(=O)CN(C)C(=O)[C@@H]1Cc1ccc(C(F)(F)F)cc1 [PP0452] ([NMeL]I[Aze][Sar][NPrPhe(4-CF3)][Sar][hPhe(3-Cl-4-CF3)][Pro(4,4-Me2)][Ac5c][NMeGly(cPent)][NMeD]-Morpholide; lactam N-11) | 34.1 | 0.73 | – | B (a compound having 3 or more and less than 10 is denoted as B) | B (a compound having 3 or more and less than 10 is denoted as B) | – | – | – | –
7 | CC[C@H](C)[C@@H]1NC(=O)[C@H](CC(C)C)N(C)C(=O)C[C@@H](C(=O)N2CCOCC2)N(C)C(=O)[C@H](C2CCCC2)N(C)C(=O)C2(CCCC2)NC(=O)[C@@H]2CCCN2C(=O)[C@H](CCc2ccc(C(F)(F)F)c(Cl)c2)NC(=O)CN(C)C(=O)[C@H](Cc2ccc(F)cc2)N2C/C=C\CC[C@@H](C2=O)N(C)C(=O)CN(C)C1=O [PP0607] | 119 | 0.97 | – | B (a compound having 3 or more and less than 10 is denoted as B) | C (A compound having a KD ratio of 0.1 or more and less than 3 is denoted as C) | – | – | – | –
8 | C=CCN1CC(=O)N(C)[C@H]2C/C=C\CCN(C2=O)[C@@H](Cc2ccc(C)cc2)C(=O)N(C)CC(=O)N[C@@H](CCc2ccc(C(F)(F)F)c(OC)c2)C(=O)N2C[C@H](OCC)C[C@H]2C(=O)NC2(CC(C)(C)C2)C(=O)N(C)[C@@H](C2CCCC2)C(=O)N(C)[C@H](C(=O)N(C)C)CC(=O)N(C)[C@@H](CC(C)C)C(=O)N[C@@H]([C@@H](C)CC)C1=O [PP2058] | 3.7 | 0.21 | – | A (a compound having 10 or more and less than 20 is denoted as A) | A (a compound having 10 or more and less than 20 is denoted as A) | – | – | – | –
9 | CCO[C@@H]1C[C@H]2C(=O)NC3(CC(C)(C)C3)C(=O)N(C)[C@@H](C3CCCC3)C(=O)N(C)[C@H](C(=O)N(C)C)CC(=O)N(C)[C@@H]([C@H](C)OC)C(=O)N[C@@H]([C@@H](C)CC)C(=O)N(C)CC(=O)N(C)[C@H]3C/C=C\CCN(C3=O)[C@@H](Cc3ccc(C)cc3)C(=O)N(C)CC(=O)N[C@@H](CCc3ccc(C(F)(F)F)c(Cl)c3)C(=O)N2C1 [PP3189] | 18.5 | – | 0.12 | – | – | – | – | A (a compound having 10 or more and less than 20 is denoted as A) | A (a compound having 10 or more and less than 20 is denoted as A)
10 | CC[C@H](C)[C@@H]1NC(=O)[C@H](CC2CC2)N(C)C(=O)C[C@@H](C(=O)N(C)C)N(C)C(=O)[C@H](C2CCCC2)N(C)C(=O)C2(CCC2)NC(=O)[C@@H]2C[C@H](C)CN2C(=O)[C@H](CCc2ccc(C(F)(F)F)c(OC)c2)NC(=O)CN(C)C(=O)[C@H](Cc2ccc(C)cc2)N2CC/C=C\C[C@@H](C2=O)N(C)C(=O)CN(C)C1=O [PP1861] | 25.7 | 0.091 | – | – | – | B (a compound having 3 or more and less than 10 is denoted as B) | A (a compound having 10 or more and less than 20 is denoted as A) | – | –
11 | CCO[C@@H]1C[C@H]2C(=O)NC3(CC(C)(C)C3)C(=O)N(C)[C@@H](C3CCCC3)C(=O)N(C)[C@H](C(=O)N(C)CC)CC(=O)N(C)[C@@H](CC(C)C)C(=O)N[C@@H]([C@@H](C)CC)C(=O)N(C)CC(=O)N(C)[C@H]3C/C=C\CCN(C3=O)[C@@H](Cc3ccc(C(F)F)cc3)C(=O)N(C)CC(=O)N[C@@H](CCc3ccc(CC)c(F)c3)C(=O)N2C1 [PP3157] | 88.5 | – | 2.1 | – | – | – | – | A (a compound having 10 or more and less than 20 is denoted as A) | A (a compound having 10 or more and less than 20 is denoted as A)
